Read-outs that look alike come from different tables or passages of the source.
Tests used:
[1] = test system: invasion of colorectal cancer cells; experiment: In vivo relative invation (invasion; EV and KITENIN controls, no method described); details: relative to EV (=1); KIT = KITENIN
KAI1 promoter = KAI1 promoter luciferase reporter assay in transfected Caco2 cells; type: cell-based, human; details: Homo sapiens, Caco-2, 16 h, read-out: Relative KAI promoter activity
[2] = 1 μM compound, 16 hours, transfected Caco2 cells, luciferase activity relative to DMSO control (=1)

SMILES | In vivo relative invation [1] | fold induction at 1 µM (KAI1 promoter; [2]) | fold induction at 1 µM (KAI1 promoter)
O=C(CNC(=O)c1ccc(CN2CCN(c3ccc([N+](=O)[O-])cc3)CC2)cc1)c1ccccc1 [Example 261, 4-((4-(4-nitrophenyl)piperazin-1-yl)methyl)-N-(2-oxo-2-phenylethyl)benzamide] | 1.197 | 1.25 | –
COc1cccc(C(=O)CNC(=O)c2cccs2)c1 [Example 127, N-(2-(3-methoxyphenyl)-2-oxoethyl)thiophene-2-carboxamide] | 1.351 | 2.46 | –
CN(C)c1ccc(C(=O)CNC(=O)c2ccc(C(F)(F)F)cc2)cc1 [Example 114, N-(2-(4-(dimethylamino)phenyl)-2-oxoethyl)-4-(trifluoromethyl)benzamide] | 1.197 | 1.38 | –
O=C(CNC(=O)c1cccs1)c1ccc(Cl)cc1 [Example 58, N-(2-(4-chlorophenyl)-2-oxoethyl)thiophene-2-carboxamide] | 1.244 | 0.91 | –
C#CN(C)Cc1cccc(C(=O)NCC(=O)c2ccccc2)c1 [Example 251, 3-((ethynyl(methyl)amino)methyl)-N-(2-oxo-2-phenylethyl)benzamide] | 1.197 | 2.37 | –
O=C(COc1ccccc1C(=O)NCC(=O)c1ccccc1)Nc1cccc(Br)c1 [Example 225, 2-(2-((3-bromophenyl)amino)-2-oxoethoxy)-N-(2-oxo-2-phenylethyl)benzamide] | 1.235 | 1.35 | –
COc1cccc(C(=O)CNC(=O)c2cccc(CN3CCN(C(=O)OC(C)(C)C)CC3)c2)c1 [Example 289, tert-butyl 4-(3-((2-(3-methoxyphenyl)-2-oxoethyl)carbamoyl)benzyl)piperazine-1-carboxylate] | 1.263 | 1.61 | –
O=C(COc1ccccc1C(=O)NCC(=O)c1ccccc1)Nc1ccc(Oc2ccccc2)cc1 [Example 221, 2-(2-oxo-2-((4-phenoxyphenyl)amino)ethoxy)-N-(2-oxo-2-phenylethyl)benzamide] | 1.322 | 0.961 | –
CN(C)c1ccc(C(=O)CNC(=O)C2CC2)cc1 [Example 100, N-(2-(4-(dimethylamino)phenyl)-2-oxoethyl)cyclopropanecarboxamide] | 1.094 | 1.62 | –
CN(C)c1ccc(C(=O)CNS(=O)(=O)c2ccc(Cl)cc2)cc1 [Example 108, 4-chloro-N-(2-(4-(dimethylamino)phenyl)-2-oxoethyl)benzenesulfonamide] | 0.989 | 1.36 | –
O=C(CNC(=O)c1cc(C(F)(F)F)cc(C(F)(F)F)c1)c1ccccc1 [Example 29, N-(2-oxo-2-phenylethyl)-3,5-bis(trifluoromethyl)benzamide] | 1.026 | 0.9 | –
CCCc1ccccc1NC(=O)COc1ccccc1C(=O)NCC(=O)c1ccccc1 [Example 210, 2-(2-oxo-2-((2-propylphenyl)amino)ethoxy)-N-(2-oxo-2-phenylethyl)benzamide] | 0.9274 | 1.03 | –
O=C(CNC(=O)c1cccs1)c1ccccc1 [Example 18, N-(2-oxo-2-phenylethyl)thiophene-2-carboxamide] | 1.1 | 2.18 | –
O=C(CNC(=O)c1ccccc1Cl)c1ccccc1 [Example 6, 2-chloro-N-(2-oxo-2-phenylethyl)benzamide] | 1.144 | – | 1.91
O=C(CNC(=O)c1ccc(CN(C2CCCCC2)C2CCCCC2)cc1)c1ccccc1 [Example 270, 4-((dicyclohexylamino)methyl)-N-(2-oxo-2-phenylethyl)benzamide] | 1.238 | 1.47 | –
O=C(CNC(=O)c1ccccc1OC(F)(F)F)c1ccccc1 [Example 41, N-(2-oxo-2-phenylethyl)-2-(trifluoromethoxy)benzamide] | 0.7565 | 1.19 | –
O=C(CNC(=O)c1ccccc1CN1CCN(c2ccccc2F)CC1)c1ccccc1 [Example 299, 2-((4-(2-fluorophenyl)piperazin-1-yl)methyl)-N-(2-oxo-2-phenylethyl)benzamide] | 1.068 | 2.17 | –
Cc1ccc(S(=O)(=O)NCC(=O)c2ccccc2)cc1 [Example 27, 4-methyl-N-(2-oxo-2-phenylethyl)benzenesulfonamide] | 1.044 | 1.31 | –
CN(C)c1ccc(C(=O)CNC(=O)c2cccs2)cc1 [Example 101, N-(2-(4-(dimethylamino)phenyl)-2-oxoethyl)thiophene-2-carboxamide] | 0.8815 | 3.04 | –

SMILES | In vivo relative invation [1] | fold induction at 1 µM (KAI1 promoter; [2]) | fold induction at 1 µM (KAI1 promoter)
O=C(CNC(=O)c1ccco1)c1ccc(Cl)cc1 [Example 46, N-(2-(4-chlorophenyl)-2-oxoethyl)furan-2-carboxamide] | 1.181 | 0.98 | –
O=C(CNC(=O)c1ccc(-c2ccccc2)cc1)c1ccc(Cl)cc1 [Example 86, N-(2-(4-chlorophenyl)-2-oxoethyl)-[1,1′-biphenyl]-4-carboxamide] | 1.193 | 1.01 | –
O=C(CNC(=O)c1ccccc1OC1CCN(C(=O)c2cccc(C(F)(F)F)c2)CC1)c1ccccc1 [Example 192, N-(2-oxo-2-phenylethyl)-2-((1-(3-(trifluoromethyl)benzoyl)piperidin-4-yl)oxy)benzamide] | 1.25 | 0.92 | –
COc1ccccc1N1CCN(Cc2ccc(C(=O)NCC(=O)c3ccccc3)cc2)CC1 [Example 259, 4-((4-(2-methoxyphenyl)piperazin-1-yl)methyl)-N-(2-oxo-2-phenylethyl)benzamide] | 1.251 | 1.23 | –
O=C(COc1ccccc1C(=O)NCC(=O)c1ccccc1)Nc1ccc2c(c1)OCO2 [Example 217, 2-(2-(benzo [d] [1,3]dioxol-5-ylamino)-2-oxoethoxy)-N-(2-oxo-2-phenylethyl)benzamide] | 1.266 | 1.18 | –
COCc1ccccc1C(=O)N1CCC(Oc2ccccc2C(=O)NCC(=O)c2ccccc2)CC1 [Example 169, 2-((1-(2-(methoxymethyl)benzoyl)piperidin-4-yl)oxy)-N-(2-oxo-2-phenylethyl)benzamide] | 1.186 | 0.99 | –
CN(C)Cc1cccc(C(=O)NCC(=O)c2ccccc2)c1 [Example 231, 3-((dimethylamino)methyl)-N-(2-oxo-2-phenylethyl)benzamide] | 1.122 | 1.56 | –
O=C(CNC(=O)c1ccccc1OC1CCN(C(=O)c2cccc(Cl)c2Cl)CC1)c1ccccc1 [Example 198, 2-((1-(2,3-dichlorobenzoyl)piperidin-4-yl)oxy)-N-(2-oxo-2-phenylethyl)benzamide] | 1.15 | 0.87 | –
CN(C)c1ccc(C(=O)CNC(=O)CC(C)(C)C)cc1 [Example 102, N-(2-(4-(dimethylamino)phenyl)-2-oxoethyl)-3,3-dimethylbutanamide] | 1.121 | 2.53 | –
Cc1cc(C)cc(C(=O)NCC(=O)c2ccc(Cl)cc2)c1 [Example 83, N-(2-(4-chlorophenyl)-2-oxoethyl)-3,5-dimethylbenzamide] | 1.171 | 0.8 | –
O=C(COc1ccccc1C(=O)NCC(=O)c1ccccc1)Nc1cc(C(F)(F)F)ccc1F [Example 222, 2-(2-((2-fluoro-5-(trifluoromethyl)phenyl)amino)-2-oxoethoxy)-N-(2-oxo-2-phenylethyl)benzamide] | 1.275 | 1.2 | –
COc1cccc(C(=O)CNC(=O)C2CCC2)c1 [Example 126, N-(2-(3-methoxyphenyl)-2-oxoethyl)cyclobutanecarboxamide] | 1.352 | 1.08 | –
O=C(CNC(=O)c1cccc(Cl)c1)c1ccc(Cl)cc1 [Example 47, 3-chloro-N-(2-(4-chlorophenyl)-2-oxoethyl)benzamide] | 0.9038 | 0.76 | –
O=C(CNC(=O)c1ccccc1OC1CCN(C(=O)C2CCC2)CC1)c1ccccc1 [Example 167, 2-((1-(cyclobutanecarbonyl)piperidin-4-yl)oxy)-N-(2-oxo-2-phenylethyl)benzamide] | 1.159 | 1.04 | –
O=C(CCc1ccccc1)NCC(=O)c1ccc(Cl)cc1 [Example 49, N-(2-(4-chlorophenyl)-2-oxoethyl)-3-phenylpropanamide] | 1.197 | 0.7 | –
CC(C)(C)CC(=O)N1CCC(Oc2ccccc2C(=O)NCC(=O)c2ccccc2)CC1 [Example 170, 2-((1-(3,3-dimethylbutanoyl)piperidin-4-yl)oxy)-N-(2-oxo-2-phenylethyl)benzamide] | 1.244 | 1.03 | –
CC(C)N(C)Cc1ccc(C(=O)NCC(=O)c2ccccc2)cc1 [Example 256, 4-((isopropyl(methyl)amino)methyl)-N-(2-oxo-2-phenylethyl)benzamide] | 1.267 | 2.25 | –
O=C(CNC(=O)c1ccccc1OC1CCN(C(=O)c2cc(C(F)(F)F)cc(C(F)(F)F)c2)CC1)c1ccccc1 [Example 190, 2-((1-(3,5-bis(trifluoromethyl)benzoyl)piperidin-4-yl)oxy)-N-(2-oxo-2-phenylethyl)benzamide] | 1.203 | 0.83 | –
CCCCC(=O)N1CCC(Oc2ccccc2C(=O)NCC(=O)c2ccccc2)CC1 [Example 172, N-(2-oxo-2-phenylethyl)-2-((1-pentanoylpiperidin-4-yl)oxy)benzamide] | 1.16 | 0.93 | –
